Assay [1] relates to human T-type calcium channel. In words: Whole-cell patch clamp measurement of T-type calcium channel inhibition (barium T-current). Format: cell-based. As to conditions: for Inhibition rate (%): EK293 cell forcibly expressing human T-type calcium channel, 6 cases; for T-type calcium channel inhibitory action (in words): whole-cell patch clamp, in vitro; for Ratio of IC50 value to IC50 value of 6-prenylnaringenin (%): IC50 as percentage of the IC50 of 6-prenylnaringenin, measured as in Example 1. As for the experimental part: Using a human kidney cell-derived cell line, an EK293 cell, in which a human T-type calcium channel was forcibly expressed, the inhibitory effect of 6-prenylnaringenin on the T-type calcium channel was measured by the whole cell patch clamp method.
In the whole-cell patch clamp method, the following solutions are used as an external solution and an internal solution, the holding potential is set to −80 mV, and the barium current was measured as an inward current flow upon a potential jump from −80 mV to −20 mV. Here, in order to eliminate the influence of the high threshold activated-calcium channel, a value obtained by subtracting the current at 150 ms after the start of stimulation from the peak current was used as a T-channel current (T-current) for data analysis.
External Solution Composition
Aqueous solution containing the following: • 97 mM N-methyl-D-glucamine (NMDG); • 10 mM BaCl2; • 10 mM 4-(2-hydroxyethyl)-1-piperazine ethanesulfonic acid (HEPES); • 40 mM tetraethylammonium chloride (TEA-Cl); and • 5 mM glucose • (pH 7.4). Internal Solution Composition
Aqueous solution containing the following: • 4 mM MgCl2; • 140 mM CsCl; • 10 mM HEPES; and • 5 mM glycol ether diamine tetraacetic acid (EGTA) • (pH 7.2).
The inhibitory effect of the compound of the present invention on the T-type calcium channel was measured in the same manner as in Example 1, except that the compound of the present invention was used instead of 6-prenylnaringenin.
On the technique in general: Patch clamp records ionic current or voltage across a cell membrane.

For assay [2], the system named is PSNL-induced hyperalgesia. In words: Partial sciatic nerve ligation (PSNL)-induced hyperalgesia, pain threshold by von Frey method. Format: in vivo, ddY male mice. As to conditions: 10 to 30 mg/kg intraperitoneally, mice 7 days after PSNL, versus vehicle group after PSNL. As for the experimental part:
PSNL-induced hyperalgesia was performed using ddY male mice under inhaled isoflurane anesthesia by incising the skin on the femur of the mouse and exposing ⅓ to ½ of the exposed sciatic nerve was completely ligated with a 8-0 suture. […] The pain threshold was measured by the von Frey method.
Compounds-40, 41, 45 and 47 were suspended in 5% aqueous carboxymethylcellulose and administered intraperitoneally using mice after 7 days of PSNL treatment, which is considered to be a chronic phase in which hyperalgesia is stable, and Pain thresholds were measured every minute. As controls, a group to which a solvent was administered after sham operation and a group to which a solvent and 6-prenylnaringenin were administered after induction of hyperalgesia by PNSL were provided.

For `CC(C)=CCc1c(O)cc2c(c1O)C(=O)C[C@@H](c1ccc(O)cc1)O2` [6-prenylnaringenin, 6-Prenylnaringenin, reference compound], in assay [1] (calculated by GraphPad Prism from the results of Example 1), the IC50 was 801 nM. In addition, the “Inhibition rate (%)” value in assay [1] (compound concentration 300 nM) is on record as 0%; in assay [1] (compound concentration 1000 nM), 82.7%; in assay [1] (compound concentration 3000 nM), 99.0%. For the same compound, the “T-type calcium channel inhibitory action (in words)” value in assay [1] is on record as “excellent T-type calcium channel inhibitory action”.
With `CC(C)=CCc1c(O)cc2c(c1O)C(=O)CC(c1ccccc1O)O2` (stereo not shown) [Compound-33, 5,7-dihydroxy-2-(2-hydroxy-phenyl)-6-(3-methyl-but-2-enyl)-chroman-4-one], the “Ratio of IC50 value to IC50 value of 6-prenylnaringenin (%)” value (from here on “Ratio of IC50 value to IC50 value … (%)”) in assay [1] came out at 12.2%.
On to `CC(C)=CCc1c(O)cc2c(c1O)C(=O)CC(c1cccc(O)c1)O2` (stereo not shown) [Compound-34, 5,7-dihydroxy-2-(3-hydroxy-phenyl)-6-(3-methyl-but-2-enyl)-chroman-4-one], for which the “Ratio of IC50 value to IC50 value … (%)” value in assay [1] is 12.5%.
For the compound `CC(C)=CCc1c(O)cc2c(c1O)C(=O)CC(c1ccc(O)c(O)c1)O2` (stereo not shown) [Compound-36, 2-(3,4-dihydroxy-phenyl)-5,7-dihydroxy-6-(3-methyl-but-2-enyl)-chroman-4-one], the “Ratio of IC50 value to IC50 value … (%)” value in assay [1] was found to be 87.5%.
On to `CC(C)CCc1c(O)cc2c(c1O)C(=O)CC(c1ccc(O)cc1)O2` (stereo not shown) [Compound-39, 5,7-dihydroxy-2-(4-hydroxy-phenyl)-6-(3-methyl-butyl)-chroman-4-one], for which the “Ratio of IC50 value to IC50 value … (%)” value in assay [1] is recorded as 10.6%.
On to `CCC(=CCc1c(O)cc2c(c1O)C(=O)CC(c1ccc(O)cc1)O2)CC` (stereo not shown) [Compound-40, 6-(3-ethyl-pent-2-enyl)-5,7-dihydroxy-2-(4-hydroxy-phenyl)-chroman-4-one], for which, in assay [1], the “Ratio of IC50 value to IC50 value … (%)” value was determined as 7.7% and the “T-type calcium channel inhibitory action (in words)” value is listed as “excellent T-type calcium channel inhibitory activity in vitro”. For the same compound, the “Effect on PSNL-induced hyperalgesia (pain threshold)” value (shortened to “Effect on PSNL-induced hyperalgesia”) in assay [2] was “significantly suppressed hyperalgesia”.
Turning to `O=C1CC(c2ccc(O)cc2)Oc2cc(O)c(CC=C3CCCC3)c(O)c21` (stereo not shown) [Compound-41, 6-(2-cyclopentylidene-ethyl)-5,7-dihydroxy-2-(4-hydroxy-phenyl)-chroman-4-one], in assay [1], the “Ratio of IC50 value to IC50 value … (%)” value is 9.0% and the “T-type calcium channel inhibitory action (in words)” value was “excellent T-type calcium channel inhibitory activity in vitro”. For the same compound, the “Effect on PSNL-induced hyperalgesia” value in assay [2] is “significantly suppressed hyperalgesia”.
For the compound `CC(C)=CCc1c(O)cc2c(c1O)C(=O)CC(c1c(O)cccc1O)O2` (stereo not shown) [Compound-42, 2-(2,6-dihydroxy-phenyl)-5,7-dihydroxy-6-(3-methyl-but-2-enyl)-chroman-4-one], the “Ratio of IC50 value to IC50 value … (%)” value in assay [1] turned out to be 72.3%.
On to `CC(C)=CCc1ccc2c(c1O)C(=O)CC(c1ccccc1O)O2` (stereo not shown) [Compound-43, 5-hydroxy-2-(2-hydroxy-phenyl)-6-(3-methyl-but-2-enyl)-chroman-4-one], for which, in assay [1], the “Ratio of IC50 value to IC50 value … (%)” value was found to be 26.6%.
For `CCC(=CCc1c(O)cc2c(c1O)C(=O)CC(c1ccccc1O)O2)CC` (stereo not shown) [Compound-45, 6-(3-ethyl-pent-2-enyl)-5,7-dihydroxy-2-(2-hydroxy-phenyl)-chroman-4-one], in assay [1], the “Ratio of IC50 value to IC50 value … (%)” value was 2.3% and the “T-type calcium channel inhibitory action (in words)” value is “excellent T-type calcium channel inhibitory activity in vitro”. In addition, the “Effect on PSNL-induced hyperalgesia” value in assay [2] is “significantly suppressed hyperalgesia”.
In the case of `CCC(CC)CCc1c(O)cc2c(c1O)C(=O)CC(c1ccc(O)cc1)O2` (stereo not shown) [Compound-46, 6-(3-ethyl-pentyl)-5,7-dihydroxy-2-(4-hydroxy-phenyl)-chroman-4-one], the “Ratio of IC50 value to IC50 value … (%)” value in assay [1] was found to be 15.0%.
With `O=C1CC(c2ccc(O)cc2)Oc2cc(O)c(CCC3CCCC3)c(O)c21` (stereo not shown) [Compound-47, 6-(2-cyclopentyl-ethyl)-5,7-dihydroxy-2-(4-hydroxy-phenyl)-chroman-4-one], in assay [1], the “Ratio of IC50 value to IC50 value … (%)” value turned out to be 8.1% and the “T-type calcium channel inhibitory action (in words)” value is “excellent T-type calcium channel inhibitory activity in vitro”. In addition, the “Effect on PSNL-induced hyperalgesia” value in assay [2] is recorded as “significantly suppressed hyperalgesia”.
Turning to `CCCC(=CCc1c(O)cc2c(c1O)C(=O)CC(c1ccc(O)cc1)O2)CCC` (stereo not shown) [Compound-48, 5,7-dihydroxy-2-(4-hydroxy-phenyl)-6-(3-propyl-hex-2-enyl)-chroman-4-one], the “Ratio of IC50 value to IC50 value … (%)” value in assay [1] is reported as 54.8%.

What is called IC50 is the concentration that gives 50% inhibition.

Values taken from patent US11479537B2, “T-type calcium channel inhibitor” (KINKI UNIVERSITY, priority 2017, dated 2022).
